The values below are quoted from earlier work in patent publication US20140065213A1, “Sustained Release Paracetamol Formulations” (GlaxoSmithKline, LLC, priority 2011, published 2014).

In the case of `CC(=O)Nc1ccc(O)cc1` [paracetamol, N-acetyl-p-aminophenol], the “tmax (maximum plasma concentration)” value (oral doses of conventional immediate release tablets) was 0.5 to 1.5 h. Moreover, where the note is “reported”, the elimination half-life was 1.9 to 2.5 h.
